Test system: CEM/VLB1000 cell line
Assay: Cytotoxicity potentiation: enhancement of vinblastine cytotoxicity in MDR cell line (alamar blue)
Format: cell-based, human
Details: Homo sapiens, midpoint of minimum and maximum cytotoxicity induced by 3-5 μg/mL vinblastine and compound, 48 hours incubation, alamar blue 24 hours, read-out: Cytotocicity Potentiation (EC50)
Experimental: Multidrug-resistant cell lines are easily obtainable for in vitro determination of drug sensitization by compounds of the present invention. In vitro potentiation of antineoplastic cytotoxicity by the imidazole derivatives of the present invention was measured in both CEM/VLB1000 and SK/VLB1000 cell lines. The multidrug resistant cell lines were obtained from Dr. Victor Ling, Ontario Cancer Institute, Toronto, Canada. The CEM/VLB 1000 cell line was maintained as a suspension in minimum essential medium supplemented with 10% fetal bovine serum in a humidied atmosphere of 95% air and 5% CO2 while the SK/VLB 1000 cell line was maintained as adherent cells using the identical medium conditions as the CEM cells. The CEM/VLB 1000 cells were seeded at a density of 5×10^4 cells/well in a 96 well microtiter plate while the SK/VLB 1000 cell line was seeded at a density of 2,500 cells/well after trypsinization.

Row | Structure (SMILES) | EC50 [µM]
1 | CCN(CC)Cc1ccc(-c2nc(-c3ccc(/C=C/C(=O)OC)cc3)[nH]c2-c2ccc(CN(CC)CC)cc2)cc1 [Example 100, 2-[4-trans-(2-methoxycarbonyl-ethenyl)phenyl]-4,5-bis (4-N,N-diethylaminomethylphenyl) imidazole] | 3.4
2 | CCOC/C=C/c1ccc(-c2nc(-c3ccc(OC)cc3)c(-c3ccc(OC)cc3)[nH]2)cc1 [Example 102, 2-[4-(3-ethoxy-trans-1-propen-1-yl)phenyl]-4,5-bis (4-dimethoxyphenyl) imidazole] | 0.35
3 | CCOC/C=C/c1ccc(-c2nc(-c3ccc(OCC)cc3)c(-c3ccc(OCC)cc3)[nH]2)cc1 [Example 103, 2-[4-(3-ethoxy-trans-1-propen-1-yl)phenyl]-4,5-bis (4-diethoxyphenyl) imidazole] | 0.24
4 | CCOC/C=C/c1ccc(-c2nc(-c3ccc(OC(C)C)cc3)c(-c3ccc(OC(C)C)cc3)[nH]2)cc1 [Example 104, 2-[4-(3-ethoxy-trans-1-propen-1-yl)phenyl]-4,5-bis (4diisopropyloxyphenyl) imidazole] | 0.25
5 | CCOC/C=C/c1ccc(-c2nc(-c3ccc(OC)cc3)c(-c3ccc(OC)cc3)n2CCCn2ccnc2)cc1 [Example 105, 1-(3-imidazole-1-yl-propyl)-2-[4-(3-ethoxy-trans-1-propen-1-yl)phenyl]-4,5bis (4-dimethoxyphenyl) imidazole] | 0.65
6 | CCOC/C=C/c1ccc(-c2nc(-c3ccc(OCC)cc3)c(-c3ccc(OCC)cc3)n2CCCn2ccnc2)cc1 [Example 106, 1-(3-imidazole-1-yl-propyl)-2-[4-(3-ethoxy-trans-1-propen-1-yl)phenyl]-4,5bis (4-diethoxyphenyl) imidazole] | 0.38
7 | CCOC/C=C/c1ccc(-c2nc(-c3ccc(OC(C)C)cc3)c(-c3ccc(OC(C)C)cc3)n2CCCn2ccnc2)cc1 [Example 107, 1-(3-imidazole-1-yl-propyl)-2-[4-(3-ethoxy-trans-1-propen-1-yl)phenyl]-4,5bis (4-diisopropyloxyphenyl) imidazole] | 0.49
8 | CCOC/C=C/c1ccc(-c2nc(-c3ccc(N(CC)CC)cc3)c[nH]2)cc1 [Example 108, 2-[4-(3-ethoxy-trans-1-propen-1-yl)phenyl]-4-(4-N,N-diethylphenyl) imidazole] | 0.3
9 | CCOC/C=C/c1ccc(-c2nc(-c3ccc(OC)cc3)c[nH]2)cc1 [Example 109, 2-[4-(3-ethoxy-trans-1-propen-1-yl)phenyl]-4-(4-methoxyphenyl) imidazole] | 1.85
10 | CN(C)c1ccc(-c2nc(-c3ccc(/C=C/CO)cc3)n(C)c2-c2ccc(N(C)C)cc2)cc1 [Example 114, 1-methyl-2-[4-(3-hydroxy-trans-1-propen-1-yl)phenyl]-4,5-bis (4-N,N-dimethylaminophenyl) imidazole] | 0.63
11 | CN(C)c1ccc(-c2nc(-c3ccc(/C=C/COC(=O)C(C)(C)C)cc3)[nH]c2-c2ccc(N(C)C)cc2)cc1 [Example 115, 2-[4-(3-pivalate-trans-1-propen-1-yl)phenyl]-4,5-bis (4-N,N-dimethylaminophenyl) imidazole] | 0.48
12 | CC(=O)/C=C/c1ccc(-c2nc(-c3ccc(N(C)C)cc3)c(-c3ccc(N(C)C)cc3)[nH]2)cc1 [Example 116, 2-[4-(3-methylcarbonyl-trans-1-propen-1-yl)phenyl]-4,5-bis (4-N,N-dimethylaminophenyl) imidazole] | 0.23
13 | CCOC/C=C/c1ccc(-c2nc3cc(OC)ccc3[nH]2)cc1 [Example 118] | 1
14 | CCOC/C=C/c1ccc(-c2nc(-c3ccc(NC(C)C)cc3)c(-c3ccc(NC(C)C)cc3)[nH]2)cc1 [Example 119, 2-[4-(3-ethoxy-trans-1-propen-1-yl)phenyl]-4,5-bis-(4-N-isopropylaminophenyl) imidazole] | 0.067
15 | CCNc1ccc(-c2[nH]c(-c3ccc(/C=C/COCC)cc3)nc2-c2ccc(NC(C)C)cc2)cc1 [Example 120, 2-[4-(3-ethoxy-trans-1-propen-1-yl)phenyl]-4-(4-N-ethylaminophenyl)-5(4-N-isopropylaminophenyl) imidazole] | 0.053
